How the values were obtained:
Aurora A = target: T1, Aurora A (Homo sapiens, UniProt O14965); test: Aurora A enzyme inhibition (time-resolved fluorescence, STK substrate-2); format: biochemical; settings: 1 mM ATP
T1 sequence (O14965 1-403): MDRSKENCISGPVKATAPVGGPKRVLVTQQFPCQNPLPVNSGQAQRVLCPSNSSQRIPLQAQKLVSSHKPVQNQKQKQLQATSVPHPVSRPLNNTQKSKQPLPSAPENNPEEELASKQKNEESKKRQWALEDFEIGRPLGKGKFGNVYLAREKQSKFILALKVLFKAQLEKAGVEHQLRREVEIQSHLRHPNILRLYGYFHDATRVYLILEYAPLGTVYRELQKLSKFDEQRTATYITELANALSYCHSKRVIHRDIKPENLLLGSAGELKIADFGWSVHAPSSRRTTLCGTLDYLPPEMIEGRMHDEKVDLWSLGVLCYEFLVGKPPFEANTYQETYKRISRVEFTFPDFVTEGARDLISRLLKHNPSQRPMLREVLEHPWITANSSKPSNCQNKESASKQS
Method in brief: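 Phosphorylation of biotinylated STK substrate-2 at 1 mM ATP, 1 h, Hepes buffer pH 7.4 (MgCl2, sodium orthovanadate, Triton X-100). After EDTA quench, 665/615 nm time-resolved fluorescence ratio read via europium anti-phospho antibody and SA-XL665; IC50 from exponential fit versus inhibitor concentration.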

Aurora B = target: T2, Aurora B (Homo sapiens, UniProt Q96GD4); test: Aurora B enzyme inhibition (time-resolved fluorescence, histone H3 peptide); format: biochemical; settings: 1 mM ATP
T2 construct: Active Aurora B enzyme (recombinant residues 1-344)
T2 sequence (Q96GD4 whole entry, the tested form may be a part): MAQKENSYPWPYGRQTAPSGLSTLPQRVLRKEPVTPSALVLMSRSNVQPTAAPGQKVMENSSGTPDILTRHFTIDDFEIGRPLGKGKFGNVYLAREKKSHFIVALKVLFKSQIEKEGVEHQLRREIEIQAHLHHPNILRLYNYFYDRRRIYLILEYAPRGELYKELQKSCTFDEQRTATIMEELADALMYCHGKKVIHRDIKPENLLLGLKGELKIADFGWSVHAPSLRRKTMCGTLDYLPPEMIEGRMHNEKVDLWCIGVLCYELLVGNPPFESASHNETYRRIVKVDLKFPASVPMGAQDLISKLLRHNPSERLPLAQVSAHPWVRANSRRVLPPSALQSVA
T2 sequence (Q9NQS7 826-918 partner limits assumed): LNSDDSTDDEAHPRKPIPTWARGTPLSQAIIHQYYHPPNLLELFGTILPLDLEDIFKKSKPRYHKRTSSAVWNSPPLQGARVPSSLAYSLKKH
Method in brief: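 IC50s came from an exponential fit of inhibition against inhibitor concentration, with phosphorylation read as the 665/615 nm time-resolved fluorescence ratio after EDTA stop using Eu-anti-phospho-H3 and SA-APC. The 1 h reaction used Aurora B 1-344 plus GST-INCENP, biotin-histone H3 1-21 peptide and 1 mM ATP in pH 7.4 HEPES buffer.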

KDR [1] = target: T3, KDR (Homo sapiens, UniProt P35968); test: KDR HTRF in vitro kinase assay; format: biochemical; design: purified enzyme (His6-KDR 789-1354, MW 63 kD); His6 (N); settings: 1 mM ATP; read-out: KDR enzyme inhibition data (Ki)
Method in brief: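 His6-KDR 789-1354 (7 ng/well) with 0.5 μM biotinylated peptide substrate and 1 mM ATP in HEPES pH 7.1, MgCl2/MnCl2, 60 min at room temperature. EDTA-quenched, detected by streptavidin-XL-665 plus Eu-kryptate anti-phosphotyrosine HTRF after 3 h; IC50 from 620/665 nm ratio.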
Target sequence in this assay (P35968 789-1354): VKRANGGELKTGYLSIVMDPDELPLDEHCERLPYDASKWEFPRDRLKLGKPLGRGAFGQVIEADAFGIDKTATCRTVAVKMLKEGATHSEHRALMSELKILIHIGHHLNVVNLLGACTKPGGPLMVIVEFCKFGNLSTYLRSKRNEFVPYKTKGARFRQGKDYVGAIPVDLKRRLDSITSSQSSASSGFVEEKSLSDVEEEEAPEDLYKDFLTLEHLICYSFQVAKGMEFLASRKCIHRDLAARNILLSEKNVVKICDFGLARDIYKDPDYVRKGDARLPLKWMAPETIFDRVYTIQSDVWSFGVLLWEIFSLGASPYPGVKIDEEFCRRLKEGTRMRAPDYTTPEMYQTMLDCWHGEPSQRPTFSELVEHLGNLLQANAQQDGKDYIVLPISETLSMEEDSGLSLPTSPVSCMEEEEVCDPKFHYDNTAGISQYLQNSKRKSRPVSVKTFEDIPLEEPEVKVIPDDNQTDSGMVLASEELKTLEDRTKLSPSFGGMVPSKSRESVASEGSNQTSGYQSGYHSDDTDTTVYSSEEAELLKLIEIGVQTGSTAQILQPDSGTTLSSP

KDR [2] = target: T3, KDR; test: KDR cellular assay (KDR receptor phosphorylation ELISA); format: cell-based; design: expressed in transfected cells; host or cells: 3T3 (embryonic mouse) cells; settings: KDR transfected 3T3 (embryonic mouse) cells, VEGF stimulated; read-out: IC50 inhibition of KDR phosphorylation
Description: The ability of compounds to inhibit KDR receptor phosphorylation in cells was measured by ELISA following the protocol outlined below.
KDR transfected 3T3 (embryonic mouse) cells added to 96-well tissue culture plates at 20,000 cells/well.
Plates were covered and placed in a 37° C. humidified incubator with 5% CO2 overnight, to allow cells to adhere.
Coating solution was prepared: 500 l/vial PBS was added to 2 vials of anti-KDR antibody, then 1 ml solubilized anti-KDR antibody into 29.0 ml bicarbonate buffer. Coating solution was added to all wells at 150 µl/well (final amount anti-KDR=1 µg/well) and placed at 4° C. overnight.
Blocking solution (2.1 g dry milk+42 ml PBS=5% milk in PBS) was placed on a stir plate for 30 min.
Assay plates were washed twice with PBST, and 200 µl/well blocking solution was added to all wells. Assay plates were covered with plate sealers and placed in a 37° C. microplate chamber until just before cell lysate transfer.
Compound stocks were thawed or prepared in DMSO as 5 mM stocks.
Dilution medium (DM, 1% DMSO in DMEM) and compounds were diluted by half-log increments for concentration response analysis.
Conditioned media was dumped from the tissue culture plates, and plates were blotted dry.
Standard solution in DM, compound dilutions in DM, or DM (for high control, negative control, and reference wells) were added to the tissue culture plates, 25 µl/well. Each pair of tissue culture plates was prepared with the same compounds, solutions, and layout; and will be combined later; Tissue culture plates were covered and placed in the 37° C. microplate chamber for 20 min.
VEGF solution was prepared: 110 l VEGF stock+10.89 ml DM=100 ng/ml VEGF
VEGF solution or DM (for reference wells) was added to the tissue culture plates, 25 μl/well.
Tissue culture plates were covered and placed in the 37° C. microplate chamber for 10 min.
RIPA buffer was prepared (240 l NaVO3 stock+240 l PIC stock+24 l NaF stock+23.496 ml RIPA base) and added to the tissue culture plates, 50 µl/well.
Tissue culture plates were covered and placed on a Labline plate shaker for 10 min (speed about 5).
Assay plates were washed twice with PBST.
Cell lysates from matching wells of each pair of tissue culture plates were combined to =200 µl/well, and were pipetted up and down to mix. Cell lysates were transferred to the assay plates using the same layouts, 170 µl/well.
Assay plates were covered with plate sealers and placed on a Labline plate shaker for 2 hr (speed about 5).
Assay plates were washed 5 times with PBST.
Biotin antibody solution was prepared (16 l biotin antibody stock+32 ml PBST=2000× dilution) and added to the assay plates, 150 µl/well.
Assay plates were covered with plate sealers and placed on a Labline plate shaker for 90 min
Streptavidin-HRP solution was prepared (16 l streptavidin-HRP stock+32 ml PBST=2000× dilution) and added to the assay plates, 150 µl/well.
Assay plates were covered with plate sealers and placed on a Labline plate shaker for 60 min
Substrate was added to the assay plates, 100 µl/well.
As assay plates developed, the plates were each monitored on a Molecular Devices Spectramax set to 650 nm, until the signal in the high control wells was around 0.6 OD and the signal in the negative control wells was around 0.1-0.15 OD.
Stop solution was added to the assay plates, 100 µl/well.
The plates were read on a Molecular Devices Spectramax set to 450 nm.
Data was calculated by Assay Explorer, using same-plate high control wells as 0% and reference standard wells as 100% inhibition of KDR phosphorylation. IC50 values were calculated by non-linear regression analysis of the concentration response data.
Target sequence in this assay (P35968 20-1356): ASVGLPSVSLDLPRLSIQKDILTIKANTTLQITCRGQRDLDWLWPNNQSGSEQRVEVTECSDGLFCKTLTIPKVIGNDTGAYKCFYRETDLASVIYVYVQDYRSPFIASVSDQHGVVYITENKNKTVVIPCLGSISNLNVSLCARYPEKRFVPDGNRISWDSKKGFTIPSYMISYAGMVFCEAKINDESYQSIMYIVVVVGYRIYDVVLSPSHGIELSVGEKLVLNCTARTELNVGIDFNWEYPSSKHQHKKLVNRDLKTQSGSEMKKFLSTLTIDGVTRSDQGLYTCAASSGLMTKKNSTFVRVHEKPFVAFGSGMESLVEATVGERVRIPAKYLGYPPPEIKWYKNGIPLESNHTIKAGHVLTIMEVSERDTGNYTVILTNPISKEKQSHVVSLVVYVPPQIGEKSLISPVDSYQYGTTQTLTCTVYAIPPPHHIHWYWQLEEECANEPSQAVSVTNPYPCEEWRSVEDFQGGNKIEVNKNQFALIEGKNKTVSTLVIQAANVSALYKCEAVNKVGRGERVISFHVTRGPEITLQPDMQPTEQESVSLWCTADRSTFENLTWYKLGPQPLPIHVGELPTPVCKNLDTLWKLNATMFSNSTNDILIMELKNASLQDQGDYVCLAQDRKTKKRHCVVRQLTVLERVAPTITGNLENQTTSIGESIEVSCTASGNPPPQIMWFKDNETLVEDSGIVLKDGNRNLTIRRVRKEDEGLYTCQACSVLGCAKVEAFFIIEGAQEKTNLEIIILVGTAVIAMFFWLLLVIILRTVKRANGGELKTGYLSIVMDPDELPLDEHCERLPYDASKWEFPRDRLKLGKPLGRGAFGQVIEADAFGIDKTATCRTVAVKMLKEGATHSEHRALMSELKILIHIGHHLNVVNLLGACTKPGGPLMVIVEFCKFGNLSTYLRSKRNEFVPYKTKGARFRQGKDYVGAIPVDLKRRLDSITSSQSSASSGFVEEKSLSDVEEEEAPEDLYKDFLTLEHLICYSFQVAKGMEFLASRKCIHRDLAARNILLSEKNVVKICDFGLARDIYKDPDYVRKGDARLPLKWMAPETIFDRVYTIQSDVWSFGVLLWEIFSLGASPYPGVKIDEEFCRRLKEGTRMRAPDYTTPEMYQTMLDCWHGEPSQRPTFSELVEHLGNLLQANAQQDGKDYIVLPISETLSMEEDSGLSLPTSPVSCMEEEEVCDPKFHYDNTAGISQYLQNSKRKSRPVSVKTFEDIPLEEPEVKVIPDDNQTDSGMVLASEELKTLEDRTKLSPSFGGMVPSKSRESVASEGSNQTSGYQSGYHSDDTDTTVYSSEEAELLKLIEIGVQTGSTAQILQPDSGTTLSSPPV

Compound: Cn1cc(Nc2ncc(Cl)c(Nc3ccc4[nH]ncc4c3)n2)cn1 [Example 175, 5-chloro-N^4-(1H-indazol-5-yl)-N^2-(1-methyl-1H-pyrazol-4-yl)pyrimidine-2,4-diamine]
- Ki (Aurora A): < 0.1 µM
- Ki (Aurora B): < 0.1 µM
- Ki (KDR [1]): < 0.1 µM
- IC50 (KDR [2]): 0.1 to 1 µM

Compound: OCCn1cc(Nc2ncc(Cl)c(Nc3ccc4[nH]ncc4c3)n2)cn1 [Example 180, 2-(4-{[5-chloro-4-(1H-indazol-5-ylamino)pyrimidin-2-yl]amino}-1H-pyrazol-1-yl)ethanol]
- Ki (Aurora A): < 0.1 µM
- Ki (Aurora B): < 0.1 µM
- Ki (KDR [1]): < 0.1 µM
- IC50 (KDR [2]): 0.1 to 1 µM

Compound: Cn1cc(Nc2ncc(Br)c(N[C@H]3[C@@H](C(N)=O)C[C@H]4C[C@@H]3C4(C)C)n2)cn1 [Example 182, (1R,2R,3S,5R)-2-({5-bromo-2-[(1-methyl-1H-pyrazol-4-yl)amino]pyrimidin-4-yl}amino)-6,6-dimethylbicyclo[3.1.1]heptane-3-carboxamide]
- Ki (Aurora A): < 0.1 µM
- Ki (Aurora B): < 0.1 µM
- Ki (KDR [1]): < 0.1 µM
- IC50 (KDR [2]): 0.1 to 1 µM

Compound: CCn1cc(Nc2ncc(Br)c(N[C@H]3[C@@H](C(N)=O)C[C@H]4C[C@@H]3C4(C)C)n2)cn1 [Example 183, (1R,2R,3S,5R)-2-({5-bromo-2-[(1-ethyl-1H-pyrazol-4-yl)amino]pyrimidin-4-yl}amino)-6,6-dimethylbicyclo[3.1.1]heptane-3-carboxamide]
- Ki (Aurora A): < 0.1 µM
- Ki (Aurora B): < 0.1 µM
- Ki (KDR [1]): < 0.1 µM
- IC50 (KDR [2]): 0.1 to 1 µM

Compound: Cc1c(Nc2ncc(Cl)c(N[C@H]3[C@@H](C(N)=O)C[C@H]4C[C@@H]3C4(C)C)n2)cnn1C [Example 184, (1R,2R,3S,5R)-2-({5-chloro-2-[(1,5-dimethyl-1H-pyrazol-4-yl)amino]pyrimidin-4-yl}amino)-6,6-dimethylbicyclo[3.1.1]heptane-3-carboxamide]
- Ki (Aurora A): < 0.1 µM
- Ki (Aurora B): < 0.1 µM
- Ki (KDR [1]): < 0.1 µM
- IC50 (KDR [2]): 0.1 to 1 µM

Compound: Cc1c(Nc2ncc(Br)c(N[C@H]3[C@@H](C(N)=O)C[C@H]4C[C@@H]3C4(C)C)n2)cnn1C [Example 185, (1R,2R,3S,5R)-2-({5-bromo-2-[(1,5-dimethyl-1H-pyrazol-4-yl)amino]pyrimidin-4-yl}amino)-6,6-dimethylbicyclo[3.1.1]heptane-3-carboxamide]
- Ki (Aurora A): < 0.1 µM
- Ki (Aurora B): < 0.1 µM
- Ki (KDR [1]): < 0.1 µM
- IC50 (KDR [2]): 0.1 to 1 µM

Compound: CC1(C)[C@H]2C[C@H](C(N)=O)[C@H](Nc3nc(Nc4cnn(Cc5ccccc5)c4)ncc3Cl)[C@@H]1C2 [Example 187, (1R,2R,3S,5R)-2-({2-[(1-benzyl-1H-pyrazol-4-yl)amino]-5-chloropyrimidin-4-yl}amino)-6,6-dimethylbicyclo[3.1.1]heptane-3-carboxamide]
- Ki (Aurora A): < 0.1 µM
- Ki (Aurora B): < 0.1 µM
- Ki (KDR [1]): < 0.1 µM
- IC50 (KDR [2]): 0.1 to 1 µM

Compound: CC1(C)[C@H]2C[C@H](C(N)=O)[C@H](Nc3nc(Nc4cnn(CCc5ccccc5)c4)ncc3Cl)[C@@H]1C2 [Example 188, (1R,2R,3S,5R)-2-[(5-chloro-2-{[1-(2-phenylethyl)-1H-pyrazol-4-yl]amino}pyrimidin-4-yl)amino]-6,6-dimethylbicyclo[3.1.1]heptane-3-carboxamide]
- Ki (Aurora A): < 0.1 µM
- Ki (Aurora B): < 0.1 µM
- Ki (KDR [1]): < 0.1 µM
- IC50 (KDR [2]): 0.1 to 1 µM

Compound: CC1(C)[C@H]2C[C@H](C(N)=O)[C@H](Nc3nc(Nc4cnn(-c5ccccc5)c4)ncc3Cl)[C@@H]1C2 [Example 189, (1R,2R,3S,5R)-2-({5-chloro-2-[(1-phenyl-1H-pyrazol-4-yl)amino]pyrimidin-4-yl}amino)-6,6-dimethylbicyclo[3.1.1]heptane-3-carboxamide]
- Ki (Aurora A): < 0.1 µM
- Ki (Aurora B): < 0.1 µM
- Ki (KDR [1]): < 0.1 µM
- IC50 (KDR [2]): 0.1 to 1 µM

Compound: CN1CCN(CCn2cc(Nc3ncc(Cl)c(N[C@H]4[C@@H](C(N)=O)C[C@H]5C[C@@H]4C5(C)C)n3)cn2)CC1 [Example 190, (1R,2R,3S,5R)-2-{[5-chloro-2-({1-[2-(4-methylpiperazin-1-yl)ethyl]-1H-pyrazol-4-yl}amino)pyrimidin-4-yl]amino}-6,6-dimethylbicyclo[3.1.1]heptane-3-carboxamide]
- Ki (Aurora A): 0.1 to 1 µM
- Ki (Aurora B): < 0.1 µM
- Ki (KDR [1]): 0.1 to 1 µM
- IC50 (KDR [2]): 0.1 to 1 µM

Compound: CC1(C)[C@H]2C[C@H](C(N)=O)[C@H](Nc3nc(Nc4cnn(C5CCNCC5)c4)ncc3Cl)[C@@H]1C2 [Example 191, (1R,2R,3S,5R)-2-[(5-chloro-2-{[1-(piperidin-4-yl)-1H-pyrazol-4-yl]amino}pyrimidin-4-yl)amino]-6,6-dimethylbicyclo[3.1.1]heptane-3-carboxamide]
- Ki (Aurora A): < 0.1 µM
- Ki (Aurora B): < 0.1 µM
- Ki (KDR [1]): < 0.1 µM
- IC50 (KDR [2]): 0.1 to 1 µM

Compound: (1S,2S,3R,4R)-3-[(5-bromo-2-{[1-(3-fluoro-4-methoxybenzyl)-1H-pyrazol-4-yl]amino}pyrimidin-4-yl)amino]bicyclo[2.2.1]hept-5-ene-2-carboxamide [Example 193]
- Ki (Aurora A): < 0.1 µM
- Ki (Aurora B): < 0.1 µM
- Ki (KDR [1]): < 0.1 µM
- IC50 (KDR [2]): < 0.1 µM

Reference: patent publication US8426408B2, “Pyrimidine inhibitors of kinases” (AbbVie Inc., priority 2009, dated 2013)
